Data from US20230248776A1, “OSTEOBLASTS DIFFERENTIATED FROM MESENCHYMAL STEM CELLS AND COMPOSITION FOR TREATING BONE DISEASE COMPRISING SAME” (CEFO Co., Ltd., priority 2020, published 2023).

System: umbilical cord-derived mesenchymal stem cells
Assay: surfactant cytotoxicity and cell growth, CCK-8 in transwell
Format: cell-based
Experimental: The toxicity of poloxamer (poloxamer 407, p407), sodium methyl cocoyl taurate (DIAPON K-SF), polyoxyethylene sorbitan monolaurate (Tween 20) or methylprednisolone, which are known as representative biocompatible surfactants, was confirmed.
Specifically, in the upper chamber in a transwell including a three-dimensional porous membrane, the surfactant p407, DIAPON K-SF or Tween 20 was respectively treated at 0, 0.5 1, 5 or 15% (v/v) and coated for 2 hours in the same manner as in [Example 2], and then, the umbilical cord-derived mesenchymal stem cells obtained in [Example 1] were seeded at 20,000 cells/cm^2. The cell growth medium was placed in the lower chamber and cultured for 3 days. On days 1, 2 and 3, the CCK-8 (Cat. CK04, DOJINDO) solution was added, and after 3 hours of reaction in a 37° C. CO2 incubator, absorbance was measured at 450 nm to analyze cytotoxicity (FIG. 4) and the degree of cell growth (FIG. 5).
Further, in a transwell including a three-dimensional porous membrane, the surfactant p407, methylprednisolone or Tween 20 was treated at a concentration of 4 mM in the upper chamber, and after coating for 2 hours in the same manner as in [Example 2], the umbilical cord-derived mesenchymal stem cells obtained in [Example 1] were seeded at 20,000 cell/cm^2. The cell growth medium was placed in the lower chamber and cultured for 3 days. On days 1, 2 and 3, the CCK-8 solution was added, and after 3 hours of reaction in a 37° C. CO2 incubator, absorbance was measured at 450 nm to analyze cytotoxicity (FIG. 6) and the degree of cell growth (FIG. 7).

Row | Molecule | cell proliferation, CCK-8 day 1 to day 3 (surfactant 4 mM coating (FIG. 7)) | cytotoxicity, CCK-8 day 1 (surfactant 4 mM coating, day 1 (FIG. 6)) | cell proliferation, CCK-8 day 1 to day 3 (surfactant 0, 0.5, 1, 5 or 15% (v/v) coating (FIG. 5)) | cytotoxicity, CCK-8 day 1 (surfactant 0, 0.5, 1, 5 or 15% (v/v) coating, day 1 (FIG. 4))
1 | C[C@H]1C[C@@H]2[C@H]([C@@H](O)C[C@@]3(C)[C@H]2CC[C@]3(O)C(=O)CO)[C@@]2(C)C=CC(=O)C=C12 [methylprednisolone] | cells did not proliferate | toxic to cells |  | 
2 | sodium methyl cocoyl taurate [DIAPON K-SF] |  |  | cells did not proliferate | toxic to cells
